Assay results: PMC6563162 (Viruses, 2019)

Assays:
Experiment in all cases: flow cytometry, inhibition of purified knob binding to HCE cells
Type in all cases: cell-based
Conditions in all cases: knob preincubated with ME0462, 1 h, 4 °C; human corneal epithelial cells
HAdV-D37/64 fiber knob = molecular target: T1, HAdV-D37/64 fiber knob (Human adenovirus D37, UniProt Q64823)
T1 construct: gene L5; N-terminal RGS-His tag kept (pQE30-Xa); E. coli M15; Ni-NTA and Q-sepharose

HAdV-D54 fiber knob = molecular target: T2, HAdV-D54 fiber knob (Human adenovirus 54, UniProt B9A5P2)
T2 construct: gene L5

HAdV-D8/53 fiber knob = molecular target: T3, HAdV-D8/53 fiber knob (Human adenovirus D8, UniProt P36845)
T3 construct: gene L5

ME0462
% inhibition at 80 μM (HAdV-D37/64 fiber knob): 70% | % inhibition at 80 μM (HAdV-D54 fiber knob): 60% | % inhibition at 80 μM (HAdV-D8/53 fiber knob): 60%
